Columns and labels:
Type in all cases: cell-based
[1] = system: Uncharacterized microorganisms cultured from raw ground beef; experiment: Total plate count challenge of 24% NaCl brine with ground beef organisms; settings: after 4 hours in 24% NaCl brine at −5° C.
Description: Tests were run to determine the effectiveness of formulas against organisms other than L. monocytogenes. […] The test solutions were inoculated with the ground beef organism culture and incubated for 4 hours at −5° C. before plating.

[2] = system: black mold; experiment: “Mold” procedure, black mold
Description: (§1) In the present example, cultures of various microorganisms native to actual process brines used in cheese manufacture were obtained from a cheese plant. The cultures of yeast, mold, and coliforms were grown and used to test the efficacy of various antimicrobial additives in blue cheese brines. Organism cultures included four different types of yeast (three distinct while yeast cultures and a pink yeast), a black mold culture, a coliform culture, a culture of mixed green mold and yeast that were not separated, and a culture that was identified by the cheese plant as heterofermentative lactic acid bacteria, although no actual identification of the strain was carried out.
(§2) “Mold” Procedure: • 1. From refrigerated stock mold cultures, take 1 ml from black mold dilution bottle added to 99 ml of cold Butterfield's Phosphate Buffered Water (PBW) to obtain 10^5 cfu/ml. • 2. Take 1 ml from green mold/white yeast mixture dilution bottle added to 99 ml of cold Butterfield's Phosphate Buffered Water (PBW) to obtain 10^6 cfu/ml. • 3. Plate serial dilutions of the cultures to get the starting count of the inoculum on Dichloran-Rose Bengal-Chloramphenicol Agar (DRBC). • 4. Add 1 ml of the diluted mold culture to 100 ml of cold test solution (do separately for each of the two mold cultures). • 5. Determine the population at time 0 and 4 hours. Spread plate serial dilutions to DRBC agar. • 6. Incubate the test solutions at 10° C.+/−2° C. for the duration of the experiment. • 7. Incubate the plates at 20° C.+/−2° C. for 5 days+/−2 hours. • 8. Count representative colonies and multiply by the dilution factor. Note: For black mold, each test solution should contain ˜10^3 cfu/ml. For green mold/white yeast mixture, each test solution should contain ˜10^4 cfu/ml.

[3] = system: yeast cocktail (Raised, Rough and Flat white yeast and a pink yeast); experiment: “Yeast” procedure, yeast cocktail
Description: as §1, with “The cultures of yeast, mold, and coliforms were grown and used to test the efficacy of various antimicrobial additives in blue cheese brines.” left out
(§3) “Yeast” Procedure: • 1. Inoculate a separate tube containing 10 ml of Brain Heart Infusion (BHI) broth for each wild type (Raised, Rough and Flat white yeast along with a single pink yeast). Incubate for 5 days at 26° C.+/−2° C. • 2. Assume growth to be 10^7 cfu/ml. Since 4 cultures are being used, combine 2.75 ml of each culture added to 99 ml of cold Butterfield's Phosphate Buffered Water (PBW) to obtain 10^6 cfu/ml of yeast cocktail. • 3. Plate serial dilutions of the culture to get the starting count of the inoculum on Dichloran-Rose Bengal-Chloramphenicol Agar (DRBC). • 4. Add 1 ml of the diluted cocktail to 100 ml of cold test solution. • 5. Determine the population at time 0 and 4 hours. Spread plate serial dilutions to DRBC agar. • 6. Incubate the test solutions at 10° C.+/−2° C. for the duration of the experiment. • 7. Incubate the plates at 20° C.+/−2° C. for 5 days+/−2 hours. • 8. Count representative colonies and multiply by the dilution factor. Note: Each test solution should contain ˜10^4 cfu/ml.
(§4) The brines were treated with different concentrations of octanoic acid and then challenged with a yeast cocktail (which included the pink and 3 different white mold types), the green mold+yeast combination, and coliforms.

[4] = system: wild type coliforms from cheese plant brine; experiment: Coliforms procedure in cheese brine or buffered solution
[5] = system: White Yeast; experiment: Yeast challenge, white yeast; settings: after 4 hours in mozzarella cheese brine; Table 19
Description: as §3
(§5) In order to determine if the effect of the additive was repeatable, more challenge tests were run on samples of process brine. […] In this test the solutions were challenged with two distinct yeast (a white and a pink) types and coliforms from the samples sent by the cheese plant.

[6] = system: Pink Yeast; experiment: Yeast challenge, pink yeast; settings: after 4 hours in mozzarella cheese brine; Table 19
Description: as §3, §5

[7] = system: wild type coliforms from cheese plant brine; experiment: Coliforms procedure in cheese brine or buffered solution; remark: listed apart in the source
Description: as §1
Coliforms Procedure: • 1. Inoculate a separate tube containing 10 ml of Brain Heart Infusion (BHI) broth for each wild type coliforms 1 and 2. Incubate for 24+/−2 hours at 35° C.+/−2° C. • 2. Assume growth to be 10^9 cfu/ml. Since two cultures are being used, combine 5.5 ml of each culture added to 99 ml of cold Butterfield's Phosphate Buffered Water (PBW) to obtain 10^8 cfu/ml. • 3. Plate serial ten-fold dilutions of the culture to get the starting count of the inoculum on Violet Red Bile Agar (VRBA). • 4. Add 1 ml of the diluted cocktail to 100 ml of cold test solution. • 5. Determine the population at time 0 and 4 hours by plating serial dilutions to VRBA spread plates. • 6. Incubate the test solutions at 10° C.+/−2° C. for the duration of the experiment. • 7. Incubate the plates at 20° C.+/−2° C. for 72+/−2 hours. • 8. Count representative colonies and multiply by the dilution factor. Note: Each test solution should contain ˜10^8 cfu/ml.
as §4

[8] = system: L. monocytogenes biofilm; experiment: L. mono biofilm challenge in hot dog plant chill brine at −20° C.; settings: for L. mono biofilm count, 1 hour: 1 hour at −20° C.; for L. mono biofilm count, 1 hour / L. mono biofilm count, 24 hours: hot dog plant chill brine with cooked turkey added; for L. mono biofilm count, 24 hours: 24 hours at −20° C.
Description: Biofilms can provide a haven for pathogens, increasing their resistance to antimicrobial treatments, and thereby providing another possible source of food contamination. Tests were run to see if some embodiments were effective against a L. monocytogenes biofilm. Challenge tests were run according to the procedure below. Test solutions were prepared from a sample of hot dog plant chill brine which was treated with various levels of the alcohol ethoxylate surfactant. Cooked turkey was added to the test solution before inoculation to simulate a worst case “dirty” brine with a high degree of organic load.
1. Inoculate five cultures, L. monocytogenes H2446 (CDC Global Standard), Scott A-serotype 4b, 12243-serotype 1/2a, WP1 and WP4 in 10 ml Brain Heart Infusion broth (BHI). Incubate the tubes for 7 days at 10° C.+/−2° C. 2. Aseptically dispense 50 ml of sterile Tryptic Soy Broth (TSB)+0.6% Yeast Extract (YE) into sterile disposable 50 ml conical shaped plastic tubes. Make enough tubes for each time point. 3. Aseptically drop one coupon into the broth in each tube. 4. Make a cocktail of the five cultures and add 0.1 ml into each tube. Incubate the tubes for 7 days at 7° C.+/−2° C. 5. Dispense 40 ml of antimicrobial salt solutions containing sterile phosphate buffer into 50 ml plastic tubes. 6. After biofilm has grown, aseptically remove coupon and rinse each side for 5 seconds with sterile distilled water to remove unattached cells. 7. Aseptically drop each rinsed coupon into the antimicrobial salt solution tube and incubate for appropriate time (1 hour and 24 hour) at −20° C.+/−2° C. 8. Aseptically add 45 ml of sterile phosphate buffer (PBW) to 50 ml conical shaped plastic tubes along with 10 sterile glass beads. 9. After incubate time is complete, aseptically move the coupon from the antimicrobial salt solution to the sterile (PBW) solution containing beads. 10. Shake the tube with glass beads for about 2 minutes to remove attached cells. 11. Plate the cells in the PBW solution on TSA+0.6% YE using appropriate dilutions and incubate at 20° C. for 72+/−2 hours. 12. Plate the antimicrobial salt solution on TSA+0.6% YE using appropriate *dilutions and incubate 20° C. for 72+/−2 hours. *Please make note: The first dilution should take place in 9 ml DE Neutralizing Buffer. After incubation, count typical colonies and record results to cfu/g.

[9] = system: green mold/white yeast mixture; experiment: “Mold” procedure, green mold/white yeast mixture; settings: 500 ppm in mozzarella brine
Description: as §1, §2
Screening tests identified octanoic acid as a promising antimicrobial additive for salt brines. Table 16 gives results of a challenge test run on actual blue cheese and mozzarella process brine samples sent from a cheese plant. The brines were treated with different concentrations of octanoic acid and then challenged with a yeast cocktail (which included the pink and 3 different white mold types), the green mold+yeast combination, and coliforms. […] The plate counts listed parenthetically as (est) were too numerous to count and were estimated.

[10] = system: L. monocytogenes; experiment: L. monocytogenes cocktail challenge of surfactant/salt solutions at 2° C.; settings: after 4 hours in solution at 2° C.
Description: Tests were generally run according to the following procedure:
(§6) 1. Inoculate a separate tube containing approximately 10 ml of Brain Heart infusion (BHI) broth with the following L. monocytogenes strains: H2446 (CDC Global Standard), Scott A (serotype 4b), 12243 (serotype 1/2a), and two strains isolated from the environment of a cooked meat and poultry facility, designated WP1, and WP4. Incubate the tubes at least 5 days at 7-10° C.+/−2° C. 2. Assume the growth to be 10^9 cfu/ml. Serially dilute each culture in cold (˜7° C.). Butterfield's Phosphate Buffered Water (PBW) to 10^8 cfu/ml (1:10). Since five cultures of L. monocytogenes are being used as a cocktail, begin the dilution series using 2.20 ml of each culture added to 99 ml of PBW. 3. Plate (−6, −7, −8) the diluted culture to get the starting count of the inoculum on Modified Oxford medium (MOX) using a thin agar overlay (TAL) technique (overlay with Trypticase Soy Agar [TSA]) to revive injured cells. 4. Add 1 ml of the diluted cocktail to 100 ml of cold test solution. 5. Mix the solutions well. 6. Determine the L. monocytogenes population at time 0 and 4 hours. Plate −1 (0.1 ml on 1 plate), −2, −3, and −4 dilutions using spread plates on MOX TAL with TSA. 7. Incubate the test solutions at test temperature for the duration of the experiment. 8. Incubate the MOX TAL with TSA plates at 20° C.+/−2° C. for 72+/−3 hours. Count representative colonies, which are black, and multiply by the dilution factor.

[11] = system: L. monocytogenes; experiment: L. monocytogenes challenge in beef plant chill brine at 4° C.; settings: after 4 hours at 4° C.; surfactant added to beef plant brine, approximately 17% sodium chloride
Description: as §6
Several tests were carried out to determine the effectiveness of embodiments according to the invention in meat processing chill brines. In one experiment, brine was taken at the end of a production week from a brine chiller used in a ready to eat, cooked beef production line. The sodium chloride concentration in this brine was approximately 17%. Samples of the brine with and without added surfactant were inoculated with a cocktail of L. monocytogenes as per the procedure described above, incubated at 4° C. for four hours, and then plated to determine L. monocytogenes survival.

[12] = after 4 hours in buffer of 375 ppm acetic acid and 525 ppm sodium acetate, pH 4.74
[13] = after 4 hours in blue cheese brine taken before or after brining cheese wheels, Table 22
[14] = about 250 ppm in blue cheese brine

Molecule: sodium linear alkylbenzene sulfonate
- Total plate count [1]: <10 cfu/mL

Molecule: CCCCCCCC(=O)[O-].[Na+] [35 ppm Na Octanoate, sodium octanoate]
- Black Mold count [2, 12]: 710 cfu/mL
- Yeast Cocktail count [3, 12]: 9,000 cfu/mL
- Coliform count [4, 12]: 7,000 cfu/mL

Molecule: CCCCCCCC(=O)O [1250 ppm octanoic acid, octanoic acid]
- White Yeast count [5]: <10 cfu/mL
- Pink Yeast count [6]: <10 cfu/mL
- Coliform count ([4]; after 4 hours in mozzarella cheese brine, Table 19): 1.2 × 10^3 cfu/mL

Molecule: CCCCCCCC(=O)O [250 ppm octanoic acid (after cheese), octanoic acid]
- Coliform count [7, 13]: <10 cfu/mL
- Black Mold count [2, 13]: <10 cfu/mL
- Yeast Cocktail count [3, 13]: <10 cfu/mL

Molecule: nonylphenolethoxylate [800 ppm nonylphenolethoxylate]
- Total plate count [1]: 40 cfu/mL

Molecule: sodium salt of sulfonated oleic acid
- Total plate count [1]: 5.2 × 10^3 cfu/mL

Molecule: alcohol ethoxylate [25 ppm alcohol ethoxylate]
- L. mono biofilm count, 1 hour [8]: 3500 cfu/coupon
- L. mono biofilm count, 24 hours [8]: 250 cfu/coupon

Molecule: CCCCCCCC(=O)O [octanoic acid, octanoic (caprylic) acid]
- log kill of coliform [7, 14]: ~3 log
- log kill of mold [2, 14]: ~3 log
- log reduction in the yeast+mold count [9]: 2 log
- log kill of one of the yeast cultures ([3]; 250 ppm in mozzarella brine (so in the source)): > 3.76 log
- log kill of yeast [3, 14]: ~3 log
- log reduction in the coliform count ([4]; 500 ppm in mozzarella brine): 2 log
- log kill of coliforms ([4]; mozzarella brine, Table 19): ~2 log

Molecule: alcohol ethoxylate [15 ppm alcohol ethoxylate]
- L. mono biofilm count, 1 hour [8]: 5,000 cfu/coupon
- L. mono biofilm count, 24 hours [8]: 5600 cfu/coupon

Molecule: CCCCCCCC(=O)[O-].[Na+] [70 ppm Na Octanoate, sodium octanoate]
- Black Mold count [2, 12]: 510 cfu/mL
- Yeast Cocktail count [3, 12]: 7,500 cfu/mL
- Coliform count [4, 12]: 12,000 cfu/mL

Molecule: alcohol ethoxylate [800 ppm alcohol ethoxylate]
- Total plate count [1]: <10 cfu/mL

Molecule: alcohol ethoxylate [50 ppm alcohol ethoxylate]
- L. mono count ([10]; Table 2, different salts and salt concentrations): 1.9 × 10^5 cfu/mL
- L. mono biofilm count, 1 hour [8]: 10-100 cfu/coupon
- L. mono biofilm count, 24 hours [8]: <10 cfu/coupon
- log kill of the biofilm within 1 hour ([8]; very “dirty” brine, −20° C., 1 hour): > 2 log
- log kill of the biofilm after 24 hours ([8]; very “dirty” brine, −20° C., 24 hours): > 3 log

Molecule: CCCCCCCC(=O)[O-].[Na+] [140 ppm Na Octanoate, sodium octanoate]
- Black Mold count [2, 12]: 630 cfu/mL
- Yeast Cocktail count [3, 12]: 10,000 cfu/mL
- Coliform count [4, 12]: 7,700 cfu/mL

Molecule: [Cl-].[Na+] [24% NaCl, sodium chloride, reference compound]
- Black Mold count [2, 12]: 660 cfu/mL
- Yeast Cocktail count [3, 12]: 6,600 cfu/mL
- Coliform count [4, 12]: 11,000 cfu/mL

Molecule: fatty alkanolamide [50 ppm fatty alkanolamide]
- L. mono count ([10]; Table 1): 1.1 × 10^4 cfu/mL
- L. mono count [11]: <10 cfu/mL
